{"source": "patent US11059830B2", "about": "“Compounds that participate in cooperative binding and uses thereof” (Revolution Medicines, Inc., priority 2015, dated 2021)", "key": {"[1]": {"biological_target": "CEP25029.4 (residues 1982-2231) (Homo sapiens (Human), UniProt P62942+Q9BV73)", "sequence (Q9BV73 1982-2231)": "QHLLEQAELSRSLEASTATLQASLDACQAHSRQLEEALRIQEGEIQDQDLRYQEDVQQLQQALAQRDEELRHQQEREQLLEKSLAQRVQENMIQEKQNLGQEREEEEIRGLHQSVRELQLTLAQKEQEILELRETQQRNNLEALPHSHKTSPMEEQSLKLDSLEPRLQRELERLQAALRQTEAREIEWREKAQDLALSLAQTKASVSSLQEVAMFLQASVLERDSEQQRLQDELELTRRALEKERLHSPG", "sequence (P62942 whole entry, the tested form may be a part)": "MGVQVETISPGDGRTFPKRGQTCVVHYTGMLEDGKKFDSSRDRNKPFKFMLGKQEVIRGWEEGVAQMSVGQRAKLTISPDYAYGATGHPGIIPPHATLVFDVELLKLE", "assay": "ITC binding of FKBP12-compound binary complex to CEP250", "experimental": "(§1) This protocol utilizes Isothermal Titration Calorimetry (ITC) to directly measure the heat change associated with binding of FKBP12-Compound 2 and FKBP12-Compound 6 binary complexes to CEP250. Measurement of the heat change allows accurate determination of association constants (Ka), reaction stoichiometry (N), and the change in binding enthalpy (ΔH).\n(§2) Compound 2 and Compound 6 in 100% DMSO (in-house), Protein Buffer (10 mM HEPES, pH 7.5, 75 mM NaCl, 0.5 mM TCEP), assay buffer (protein buffer+1% DMSO), FKBP12 (in-house), CEP25029.4 (residues 1982-2231) and CEP25011.4 (residues 2134-2231) (in-house).\n(§3) MicroCal™ ITC200 (GE Healthcare) Experimental Protocol: FKBP12 stock solution was diluted to 10 μM in assay buffer (1% DMSO final). Compound was added to FKBP12 to 20 μM (1% DMSO final), and binary complex was filled into the reaction cell of the ITC device after 5-10 min pre-incubation time. CEP250 protein stocks were diluted to 50 μM in assay buffer and supplemented with 20 μM compound (1% DMSO final) before being filled into the injection syringe. A control experiment in the absence of compound was also run to determine the heat associated with operational artifacts and the dilution of titrant as it was injected from the syringe into the reaction cell."}, "[2]": {"biological_target": "CEP25011.4 (residues 2134-2231) (Homo sapiens (Human), UniProt P62942+Q9BV73)", "sequence (Q9BV73 2134-2231)": "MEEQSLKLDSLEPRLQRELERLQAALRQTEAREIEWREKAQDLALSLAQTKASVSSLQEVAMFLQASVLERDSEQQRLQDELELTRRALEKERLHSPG", "sequence (P62942 whole entry, the tested form may be a part)": "as the sequence (P62942 whole entry, the tested form may be a part) above", "assay": "ITC binding of FKBP12-compound binary complex to CEP250", "experimental": "as §1, §2, §3"}}}
{"smiles": "CC[C@H](Cc1ccccc1)[C@@H]1/C=C/C/C=C/C[C@@H](C)[C@H](O)[C@@H](C)[C@@H]2CC[C@@H](C)C(=O)C(O)(O2)C(=O)N2CCCC[C@H]2C(=O)O1", "note": "[Compound 2]", "values": [{"measurement": "Kd", "setting": "[1]", "value": 190, "unit": "nM"}, {"measurement": "ΔH", "setting": "[1]; ITC, FKBP12 10 μM in cell, CEP25029.4 118 μM in syringe, ligand 20 μM, 298 K", "value": -12.48, "unit": "kcal/mol"}, {"measurement": "ΔG", "setting": "[1]; ITC, FKBP12 10 μM, CEP25029.4 118 μM, ligand 20 μM, 298 K, ΔG = −RT ln Ka", "value": -9.18, "unit": "kcal/mol"}, {"measurement": "−T*ΔS", "setting": "[1]; ITC, FKBP12 10 μM, CEP25029.4 118 μM, ligand 20 μM, 298 K, −TΔS = ΔG − ΔH", "value": 3.298, "unit": "kcal/mol"}, {"measurement": "Kd", "setting": "[2]", "value": 70, "unit": "nM"}, {"measurement": "ΔH", "setting": "[2]; ITC, FKBP12 10 μM in cell, CEP25011.4 68 μM in syringe, ligand 20 μM, 298 K", "value": -11.8, "unit": "kcal/mol"}, {"measurement": "ΔG", "setting": "[2]; ITC, FKBP12 10 μM, CEP25011.4 68 μM, ligand 20 μM, 298 K, ΔG = −RT ln Ka", "value": -9.739, "unit": "kcal/mol"}, {"measurement": "−T*ΔS", "setting": "[2]; ITC, FKBP12 10 μM, CEP25011.4 68 μM, ligand 20 μM, 298 K, −TΔS = ΔG − ΔH", "value": 2.06, "unit": "kcal/mol"}]}
